Data from patent US20080051454A1, “Compositions and methods for transient receptor potential vanilloid (TRPV) channel mediated treatments” (The Board of Trustees Operating Michigan State University, priority 2006, published 2008).
Several values for one entry are separate records, joined by “and”; a condition that tells them apart may be missing. Equal entries are not always repeated.

Experiments:
[1] = system: male Wistar rats; assay: Depressor effect of 20-HETE analog DSR given IV, with or without antagonists; format: in vivo, rat
[2] = system: male Wistar rats; assay: Plasma CGRP and substance P after i.v. DSR (radioimmunoassay); format: in vivo, rat; conditions: after DSR 1 mg/kg iv
[3] = system: Wistar rats fed a NS or HS diet for 3 weeks; assay: Plasma CGRP levels after MethA injection (radioimmunoassay); format: in vivo, rat; conditions: MethA 5 mg/kg
Text: Fifteen minutes after injection, when the prolonged depressor phase approached to the lowest point, the rats were decapitated for collection of blood for plasma CGRP assay.
(§1) This antibody has 100% cross-reactivity with rat α-CGRP and 79% with rat β-CGRP. There is no cross-reactivity with rat amylin, calcitonin, somatostatin, or substance P.

[4] = system: mesenteric arteries; assay: MethA-induced CGRP release from isolated mesenteric arteries (radioimmunoassay); parameters: species or system rat; conditions: arteries of NS-treated rats
Description: The arteries were dissected free of fat and connective tissues.
The preparations were incubated in a Krebs' solution of the following compositions (in mM): NaCl 119, NaHCO3 25, KH2PO4 1.2, MgSO4 1.5, CaCl2 2.5, KCl 4.7, and D-glucose 11. The Krebs' solution was maintained at 37 °C and gassed with 95% O2 and 5% CO2. After 1 h stabilization period, the arteries were transferred to another chamber containing 1 ml of Krebs' solution with the addition of 0.05% BSA and drugs. […] The tissues were removed after 20 min incubation, and the solutions were collected. At the end of the experiment, the tissues were blotted and weighted.
as §1

[5] = system: mesenteric arteries; assay: NADA-induced CGRP release from isolated mesenteric arteries (radioimmunoassay); parameters: species or system rat
Description: After an 1 h stabilization period, the arteries were transferred to another chamber containing 1 ml of Krebs's solution with the addition of 0.05% BSA and drugs including NADA (1 or 10 μM) or CAPZ (10 μM). The tissues were removed after 20 min incubation, and the solutions were collected and evaporated. […] At the end of the experiment, the tissues were blotted and weighted. […] The results are expressed as pg of milligram of tissues.
(§2) This antibody has 100% cross-reactivity with rat a-CGRP and 79% with β-CGRP. There is no cross-reactivity with rat amylin, calcitonin, somatostatin, or substance P. The assay was performed following the manufacturer's protocol.

[6] = system: Wistar rats fed a normal-salt (NS) or high-salt (HS) diet for 10 days; assay: MAP and HR responses to i.v. bolus NADA with or without antagonists in conscious rats; format: in vivo, rat; conditions: for decrease in mean arterial pressure (depressor effect): NADA iv (1, 4, 10 mg/kg; dose of this value not stated); for prolonged depressor effect of NADA (decrease in MAP) after antagonist: NADA 4 mg/kg after CAPZ 3 mg/kg, CGRP8-37 infusion or SR141716A 3 mg/kg
Text: In brief: Wistar rats were fed a normal (NS, 0.4%) or high (HS, 4%) sodium diet for 10 days, then artery and vein were cannulated for measurement of mean arterial pressure (MAP) or for injection of drugs and collection of plasma.
Animal Preparation: Male Wistar rats (7 weeks old, Charles River Laboratory, Wilmington, Mass.) were housed in the animal facility for 1 week before the experiment. Rats were grouped randomly and pair-fed a NS (0.4% of Na^+ by weight) or HS (4% of Na^+ by weight) diet for 10 days. The rat chow was purchased from Harlan Teklad Diets (Madison, Wis.). Drinking water was available ad libitum throughout the experiment. All protocols were in accordance with the National Institutes of Health Guidelines for the Care and Use of Laboratory Animals.
Surgical Preparation Rats were anesthetized with ketamine and xylazine (80 and 4 mg/kg intraperitoneally, respectively) for cannulation or with urethane (1.5 g/kg intraperitoneally) for capsaicin administration. The left jugular vein, carotid and femoral artery were cannulated under anesthesia for injection of drugs or monitoring of mean arterial pressure (MAP) and heart rate (HR).
Three hours after surgery, baseline MAP and its response to the above-mentioned drugs were obtained with the rats fully awake and unrestrained [Wang et al., Am J Physiol 2004; 287:H1868-H[874]. NADA was injected in increasing doses (1, 4, and 10 mg/kg intravenous bolus) in 3 subgroups of rats (each group for each dose). To determine the role of TRPV1 and CB 1 receptor in NADA-induced hypotension, NADA (4 mg/kg) was injected 10 minutes or 20 minutes after intravenous injection of CAPZ (3 mg/kg) or SR141716A (3 mg/kg), respectively.
To examine the effect of CGRP8-37 on NADA-induced hypotension, CGRP8-37 was intravenously administered at the rate of 1 mg/kg/min for 2 minutes followed by injection at the rate of 0.5 mg/kg/min for 15 minutes. NADA (4 mg/kg) was injected 1 minute after CGRPs-37 administration. The effectiveness of the dose and time frame for CGRP8-37 injection was verified by blockade of the hypotensive response to capsaicin (30 μg/kg) (n=5).

[7] = system: Wistar rats fed a NS or HS diet for 10 days; assay: Plasma CGRP levels after NADA injection (radioimmunoassay); format: in vivo, rat; conditions: NADA 4 mg/kg
Description: Eight minutes after injection, when the depressor phase approached to the lowest point, the rats were sacrificed for collection of blood for plasma CGRP assay.
as §2

[8] = system: Wistar rats fed HS diet; assay: Blood pressure after i.v. SR141716A or CAPZ in conscious rats fed HS diet (Example I); format: in vivo, rat; conditions: 3 mg/kg iv
Description: Experiments were approved by the Institutional Animals Care and Use Committee. Experiments were performed using male Wistar rats (Charles River Laboratory, Wilmington, Mass.). Rats (6 weeks old) were housed in the animal facility for 1 week before the experiments. Rats were then randomly assigned to a normal-sodium (NS) diet (0.4% of Na+ by weight, Harlan Teklad) or HS (4% of Na+ by weight; Harlan Teklad) for 3 weeks. Rats drank water ad libitum throughout the experiment.
Surgical Preparation and MAP measurements: The rats were anesthetized with ketamine and xylazine (80 and 4 mg/kg intraperitoneally, respectively) for implantation of vascular catheters or with urethane ([…] intraperitoneally) throughout protocol 2. […]
Protocol 1: Rats fed a NS or HS diet were randomly assigned to 5 groups for intravenous injection of vehicle or MethA alone or in combination with SR141716A (a CB1 receptor antagonist), CAPZ (a VR1 receptor antagonist), or the combination of the 2 (n=5 to 8). Baseline MAP and its response to the aforementioned drugs were determined 3 hours after surgery when animals were fully awake and unrestrained as described previously. […]

O=C(O)CCC/C=C\CCCCCCC/C=C\CCCCO [DSR]
decrease in mean arterial pressure ([1]; DSR 1 mg/kg IV alone): 22.1±2.3 mmHg
depressor effect among the analogs tested in vivo ([1]; rat, in vivo): most potent
plasma CGRP levels [2]: 273.4 ± 23.6 pg/mL
plasma SP levels [2]: 14.5 ± 1.6 pg/mL

CCCCC/C=C\C/C=C\C/C=C\C/C=C\CCCC(=O)N[C@H](C)CO [MethA, methanandamide]
plasma CGRP levels ([3]; HS): 78.1 ± 8.5 pg/mL
plasma CGRP levels ([3]; NS): 50.4 ± 5.9 pg/mL
CGRP release ([4]; MethA 0.1 μM): 4.81±0.75 pg/mg tissue
CGRP release ([4]; MethA 10 μM): 14.89±2.36 pg/mg tissue

CCCCC/C=C\C/C=C\C/C=C\C/C=C\CCCC(=O)NCCc1ccc(O)c(O)c1 [NADA, N-arachidonoyl dopamine]
CGRP release ([5]; NADA 1 μM, arteries of HS-treated rats): 9.16±0.68 pg/mg tissue
CGRP release ([5]; NADA 1 μM, arteries of NS-treated rats): 6.43±0.58 pg/mg tissue
CGRP release ([5]; NADA 10 μM, arteries of HS-treated rats): 19.00±1.56 pg/mg tissue
CGRP release ([5]; NADA 10 μM, arteries of NS-treated rats): 13.07±0.91 pg/mg tissue
peak decrease in MAP ([6]; NADA 1 mg/kg iv, HS diet): 6±2 mmHg
peak decrease in MAP ([6]; NADA 1 mg/kg iv, NS diet): 7±3 mmHg
peak decrease in MAP ([6]; NADA 4 mg/kg iv, HS diet): 22±3 mmHg
peak decrease in MAP ([6]; NADA 4 mg/kg iv, NS diet): 14±2 mmHg
peak decrease in MAP ([6]; NADA 10 mg/kg iv, HS diet): 33±5 mmHg
peak decrease in MAP ([6]; NADA 10 mg/kg iv, NS diet): 24±4 mmHg
decrease in mean arterial pressure (depressor effect) ([6]; HS diet): 16±3 mmHg
decrease in mean arterial pressure (depressor effect) ([6]; NS diet): 8±2 mmHg
HR during depressor effect ([6]; after NADA iv): pronounced increase
duration of prolonged depressor activity ([6]; after NADA iv): approximately 20 minutes
time of peak of prolonged depressor activity after administration ([6]; after NADA iv): 7 to 9 min
plasma CGRP levels ([7]; HS): 84.2 ± 7.2 pg/mL and 87.7 ± 5.6 pg/mL
plasma CGRP levels ([7]; NS): 55.3 ± 4.6 pg/mL and 60.6 ± 5.1 pg/mL

Cc1c(C(=O)NN2CCCCC2)nn(-c2ccc(Cl)cc2Cl)c1-c1ccc(Cl)cc1 [SR141716A]
prolonged depressor effect of NADA (decrease in MAP) after antagonist ([6]; HS diet): 19±4 mmHg
prolonged depressor effect of NADA (decrease in MAP) after antagonist ([6]; NS diet): 12±3 mmHg
effect on initial transient hypotensive and brief pressor phases of NADA ([6]; NADA 4 mg/kg, NS and HS): did not affect
duration of transient elevation in blood pressure after injection [8]: no more than 15 minutes
